The text below walks through data of PubChem BioAssay AID256 (DTP/NCI, 2004).

Toxic doses and inconclusive results are not listed.

The test concerns CD2F1 mice, L1210 leukemia ip, survival T/C. The test is described as follows: NCI In Vivo Anticancer Drug Screen. Data for tumor model L1210 Leukemia (intraperitoneal) in CD2F1 (CDF1) mice. Conditions: higher = longer survival. The method, boiled down: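 Transplantable tumor in mice; compound-treated vs vehicle-treated groups. Read-out = treated/control ratio of the measured endpoint.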

[1] abbreviates: endpoint: mean survival time, dose: 100.0 mg/kg/injection, schedule: Q01DX009 (ip), vehicle: saline with Tween-80.
Where [2] appears, read: endpoint: mean survival time, dose: 200.0 mg/kg/injection, schedule: Q01DX009 (ip), vehicle: saline with Tween-80.
Where [3] appears, read: endpoint: mean survival time, dose: 400.0 mg/kg/injection, schedule: Q01DX009 (ip), vehicle: saline with Tween-80.
The mark [4] stands for this setting: endpoint: mean survival time, dose: 100.0 mg/kg/injection, schedule: Q04DX003 (ip), vehicle: saline.
Where [5] appears, read: endpoint: mean survival time, dose: 200.0 mg/kg/injection, schedule: Q04DX003 (ip), vehicle: saline.
Setting [6] is: endpoint: mean survival time, dose: 400.0 mg/kg/injection, schedule: Q04DX003 (ip), vehicle: saline.
The mark [7] stands for this setting: endpoint: mean survival time, dose: 100.0 mg/kg/injection, schedule: Q01DX009 (ip), vehicle: Klucel (hydroxypropylcellulose) (HPC).
Setting [8] is: endpoint: mean survival time, dose: 200.0 mg/kg/injection, schedule: Q01DX009 (ip), vehicle: Klucel (hydroxypropylcellulose) (HPC).
The mark [9] stands for this setting: endpoint: mean survival time, dose: 400.0 mg/kg/injection, schedule: Q01DX009 (ip), vehicle: Klucel (hydroxypropylcellulose) (HPC).
[10] abbreviates: endpoint: mean survival time, dose: 100.0 mg/kg/injection, schedule: Q01DX001 (ip), vehicle: saline.
Where [11] appears, read: endpoint: mean survival time, dose: 200.0 mg/kg/injection, schedule: Q01DX001 (ip), vehicle: saline.
The mark [12] stands for this setting: endpoint: mean survival time, dose: 400.0 mg/kg/injection, schedule: Q01DX001 (ip), vehicle: saline.
[13] abbreviates: endpoint: mean survival time, dose: 100.0 mg/kg/injection, schedule: Q04DX003 (ip), vehicle: saline with Tween-80.
Where [14] appears, read: endpoint: mean survival time, dose: 200.0 mg/kg/injection, schedule: Q04DX003 (ip), vehicle: saline with Tween-80.
Setting [15] is: endpoint: mean survival time, dose: 400.0 mg/kg/injection, schedule: Q04DX003 (ip), vehicle: saline with Tween-80.
Setting [16] is: endpoint: mean survival time, dose: 25.0 mg/kg/injection, schedule: Q01DX009 (ip), vehicle: saline with Tween-80.
The mark [17] stands for this setting: endpoint: mean survival time, dose: 50.0 mg/kg/injection, schedule: Q01DX009 (ip), vehicle: saline with Tween-80.

As to `O=C1c2ccccc2C(=O)c2c(NCCNCCNCCO)ccc(NCCNCCNCCO)c21`, the T/C was 100 % of control (endpoint: mean survival time, dose: 8.0 mg/kg/injection, schedule: Q01DX009 (ip), vehicle: acid diluted with saline); 96 % of control (endpoint: mean survival time, dose: 16.0 mg/kg/injection, schedule: Q01DX009 (ip), vehicle: acid diluted with saline); 108 % of control (endpoint: mean survival time, dose: 32.0 mg/kg/injection, schedule: Q01DX009 (ip), vehicle: acid diluted with saline); 96 % of control (endpoint: mean survival time, dose: 64.0 mg/kg/injection, schedule: Q01DX009 (ip), vehicle: acid diluted with saline).

`CCOC(=O)N1C(=O)c2ccccc2C1=O`: the T/C under setting [1] is 93 % of control, the T/C under setting [2] is 93 % of control and the T/C under setting [3] was 100 % of control.

For `Cn1ncc2c(NCc3ccccc3)ncnc21`, the T/C (endpoint: mean survival time, dose: 18.0 mg/kg/injection, schedule: Q01DX009 (ip), vehicle: saline with Tween-80) is 114 % of control and the T/C (endpoint: mean survival time, dose: 37.5 mg/kg/injection, schedule: Q01DX009 (ip), vehicle: saline with Tween-80) was 115 % of control.

Turning to `OCC(F)(F)C(F)(F)C(F)(F)CO`, the T/C was 101 % of control under setting [4], 107 % of control under setting [5] and 104 % of control under setting [6].

`CC(=O)OC1CC2C[CH]([Hg][Cl])C1C2` (configuration not stated): the T/C reads like this: (endpoint: mean survival time, dose: 6.25 mg/kg/injection, schedule: Q04DX003 (ip), vehicle: saline with Tween-80) 95 % of control; (endpoint: mean survival time, dose: 12.5 mg/kg/injection, schedule: Q04DX003 (ip), vehicle: saline with Tween-80) 111 % of control; (endpoint: mean survival time, dose: 25.0 mg/kg/injection, schedule: Q04DX003 (ip), vehicle: saline with Tween-80) 86 % of control.

As to `C[P+](c1ccc(F)cc1)(c1ccc(F)cc1)c1ccc(F)cc1`, the T/C by setting is: (endpoint: mean survival time, dose: 25.0 mg/kg/injection, schedule: Q04DX002 (ip), vehicle: saline with Tween-80) 100 % of control; (endpoint: mean survival time, dose: 50.0 mg/kg/injection, schedule: Q04DX002 (ip), vehicle: saline with Tween-80) 92 % of control.

As for `N=C(N)c1ccc(N=NNc2ccc(C(=N)N)cc2)cc1`, the T/C runs as follows: (endpoint: median survival time, dose: 12.5 mg/kg/injection, schedule: Q01DX009 (ip), vehicle: saline with Tween-80) 117 % of control; (endpoint: median survival time, dose: 25.0 mg/kg/injection, schedule: Q01DX009 (ip), vehicle: saline with Tween-80) 102 % of control.

For `CC(C)CCCCCc1ccc(OCCOc2ccc(C(=O)Nc3ccc(S(=O)(=O)F)cc3[N+](=O)[O-])cc2)cc1`, the T/C is, setting by setting: under setting [7], 91 % of control; under setting [8], 92 % of control; under setting [9], 87 % of control.

Consider `CC(O)C1OC(n2cnc3c(=O)[nH]c(N)nc32)C(O)C1O` (configuration not stated), for which the T/C (endpoint: mean survival time, dose: 12.5 mg/kg/injection, schedule: Q01DX005 (ip), vehicle: distilled water + Tween-80) was 101 % of control; the T/C (endpoint: mean survival time, dose: 25.0 mg/kg/injection, schedule: Q01DX005 (ip), vehicle: distilled water + Tween-80) is 100 % of control; the T/C (endpoint: mean survival time, dose: 50.0 mg/kg/injection, schedule: Q01DX005 (ip), vehicle: distilled water + Tween-80) is 101 % of control; the T/C (endpoint: mean survival time, dose: 100.0 mg/kg/injection, schedule: Q01DX005 (ip), vehicle: distilled water + Tween-80) is 97 % of control; the T/C (endpoint: mean survival time, dose: 200.0 mg/kg/injection, schedule: Q01DX005 (ip), vehicle: distilled water + Tween-80) was 97 % of control; the T/C (endpoint: median survival time, dose: 12.5 mg/kg/injection, schedule: Q01DX005 (ip), vehicle: distilled water + Tween-80) was 112 % of control. Besides, the T/C by setting is: (endpoint: median survival time, dose: 20.0 mg/kg/injection, schedule: Q01DX005 (ip), vehicle: distilled water + Tween-80) 108 % of control; (endpoint: median survival time, dose: 50.0 mg/kg/injection, schedule: Q01DX005 (ip), vehicle: distilled water + Tween-80) 112 % of control; (endpoint: median survival time, dose: 100.0 mg/kg/injection, schedule: Q01DX005 (ip), vehicle: distilled water + Tween-80) 104 % of control; (endpoint: median survival time, dose: 200.0 mg/kg/injection, schedule: Q01DX005 (ip), vehicle: distilled water + Tween-80) 96 % of control.

With `Cc1ccc(-c2oc3ccccc3c(=O)c2O)cc1`, the T/C is 98 % of control (endpoint: mean survival time, dose: 50.0 mg/kg/injection, schedule: Q01DX001 (ip), vehicle: saline); 92 % of control under setting [10]; 98 % of control under setting [11]; 98 % of control under setting [12].

Turning to `CN(C)c1ccc(/C=N/NC(=O)CC2CCCCC2)cc1`, the T/C reads like this: under setting [1], 90 % of control; under setting [2], 93 % of control; under setting [3], 93 % of control.

Turning to `CC(C)(CCl)c1ccc(C(C)(C)CCl)cc1`, the T/C runs as follows: under setting [13], 100 % of control; under setting [14], 91 % of control; under setting [15], 100 % of control.

Take `O=C(O)c1cccc(-c2ccccc2)c1`: the T/C by setting is: (endpoint: mean survival time, dose: 100.0 mg/kg/injection, schedule: Q01DX009 (ip), vehicle: saline) 104 % of control; (endpoint: mean survival time, dose: 200.0 mg/kg/injection, schedule: Q01DX009 (ip), vehicle: saline) 154 % of control; (endpoint: mean survival time, dose: 400.0 mg/kg/injection, schedule: Q01DX009 (ip), vehicle: saline) 93 % of control.

As to `O=c1[nH]c(SCc2ccc(Cl)cc2)nc(-c2ccc(Cl)cc2)c1CCO`, the T/C reads like this: under setting [7], 87 % of control; under setting [8], 87 % of control; under setting [9], 87 % of control.

As for `CN(C)Cc1cc(CN(C)C)c(O)c(CN(C)C)c1`, the T/C under setting [4] is 107 % of control and the T/C under setting [5] was 100 % of control.

As to `CC1(C)OCC(C2OC3OC(C)(C)OC3C2O)O1` (configuration not stated), the T/C was 105 % of control under setting [10]; 100 % of control under setting [13]; 97 % of control under setting [4]; 103 % of control under setting [11]; 95 % of control under setting [14]; 96 % of control under setting [5]. Moreover, the T/C reads like this: under setting [12], 103 % of control; under setting [15], 103 % of control; under setting [6], 100 % of control.

Turning to `O=C(O)C(O)C(O)C(=O)O` (configuration not stated), the T/C was 103 % of control under setting [10]; 102 % of control under setting [1]; 97 % of control under setting [13]; 110 % of control under setting [4]; 106 % of control under setting [11]; 102 % of control under setting [2]. The T/C under setting [14] is 92 % of control; the T/C under setting [5] was 98 % of control; the T/C under setting [12] is 110 % of control; the T/C under setting [15] is 97 % of control; the T/C under setting [6] is 101 % of control.

On to `O=C1/C(=C/c2ccccc2)CCC/C1=C\c1ccccc1`, for which the T/C was 94 % of control under setting [16], 94 % of control under setting [17] and 89 % of control under setting [1].

Take `C(=N\Nc1ccccc1)/c1ccccc1`: the T/C by setting is: (endpoint: mean survival time, dose: 100.0 mg/kg/injection, schedule: Q01DX001 (ip), vehicle: saline with Tween-80) 107 % of control; (endpoint: mean survival time, dose: 100.0 mg/kg/injection, schedule: Q04DX003 (ip), vehicle: Klucel (hydroxypropylcellulose) (HPC)) 106 % of control; (endpoint: mean survival time, dose: 200.0 mg/kg/injection, schedule: Q01DX001 (ip), vehicle: saline with Tween-80) 94 % of control; (endpoint: mean survival time, dose: 200.0 mg/kg/injection, schedule: Q04DX003 (ip), vehicle: Klucel (hydroxypropylcellulose) (HPC)) 98 % of control; (endpoint: mean survival time, dose: 400.0 mg/kg/injection, schedule: Q01DX001 (ip), vehicle: saline with Tween-80) 100 % of control; (endpoint: mean survival time, dose: 400.0 mg/kg/injection, schedule: Q04DX003 (ip), vehicle: Klucel (hydroxypropylcellulose) (HPC)) 96 % of control.

Consider `CN(CCO)N=Nc1ccccc1`, for which the T/C runs as follows: (endpoint: mean survival time, dose: 75.0 mg/kg/injection, schedule: Q01DX001 (ip), vehicle: saline) 102 % of control; (endpoint: mean survival time, dose: 150.0 mg/kg/injection, schedule: Q01DX001 (ip), vehicle: saline) 105 % of control.

Take `NC(C(=O)O)=C(c1ccccc1)c1ccccc1`: the T/C (endpoint: mean survival time, dose: 100.0 mg/kg/injection, schedule: Q04DX002 (ip), vehicle: saline with Tween-80) was 98 % of control; the T/C (endpoint: mean survival time, dose: 200.0 mg/kg/injection, schedule: Q04DX002 (ip), vehicle: saline with Tween-80) is 102 % of control; the T/C (endpoint: mean survival time, dose: 400.0 mg/kg/injection, schedule: Q04DX002 (ip), vehicle: saline with Tween-80) was 102 % of control.

On to `COc1ccc(/C=c2\[nH]c(=O)/c(=C/c3ccc(OC)c(OC)c3)[nH]c2=O)cc1OC`, for which the T/C runs as follows: under setting [16], 95 % of control; under setting [17], 103 % of control; under setting [1], 90 % of control.
